Assays:
[1] = test system: NCI-H292: human mucoepidermoid lung carcinoma cells; assay: MTT assay, cytotoxicity of metabolites, NCI-H292; assay type: cell-based; details: NCI-H292, 96 h incubation
Experimental: NCI-H292: human mucoepidermoid lung carcinoma cells, ATCC-CRL-1848, standard medium: RPMI 1640 (Biochrom; #FG1215, stab. glutamine)+10% FCS (Biochrom; #S0415).
(§1) The cells were cultivated according to the standard method using the growth media listed under C-1. The test is carried out by detaching the cells with a solution of Accutase in PBS (Biochrom AG #L2143), pelleting, resuspending in culture medium, counting and sowing into a 96-well culture plate with white bottom (Costar #3610) (NCI H292: 2500 cells/well in a total volume of 100 μl). The cells were then incubated in an incubator at 37° C. and 5% carbon dioxide. After 48 h, the medium was replaced. The metabolites in 10 μl of culture medium in concentrations from 10^−5M to 10^−13M were then pipetted to the cells (in triplicate), and the assay was then incubated in an incubator at 37° C. and 5% carbon dioxide. […] To this end, the MTT reagent was incubated with the cells for 4 h, followed by lysis of the cells overnight by addition of the detergent. The dye formed was detected at 570 nm (Infinite M1000 pro, Tecan). The measured data were used to calculate the IC50 of the growth inhibition using the DRC (dose response curve). The proliferation of cells which were not treated with test substance but were otherwise identically treated was defined as the 100% figure.

[2] = test system: KPL4; assay: MTT assay, cytotoxicity of metabolites, KPL4; assay type: cell-based; details: KPL4; 96 h incubation
Experimental: as §1

[3] = test system: Caco-2 cells; assay: Flux assay for cell permeability using Caco-2 cells; details: Caco-2, basal to apical, 2 hours
[4] = test system: A498: human renal carcinoma cells; assay: CTG assay, cytotoxic effects of the anti-B7H3 ADCs, A498; assay type: cell-based; details: growth inhibition vs day 0, 72 h incubation, B7H3-positive cells
Experimental: (§2) The analysis of the cytotoxic effects of the anti-B7H3 ADCs was carried out with various cell lines:
(§3) The cells were cultivated by the standard method as stated by the American Tissue Culture Collection (ATCC) for the cell lines in question.
(§4) The cells were cultivated according to the standard method using the growth media listed under C-1. […] The cells were then incubated in an incubator at 37° C. and 5% carbon dioxide. In a parallel plate, the cell vitality was determined at the start of the drug treatment (day 0) using the Cell Titer Glow (CTG) Luminescent Cell Viability Assay (Promega #G7573 and #G7571). To this end, 100 μl of the substrate were added per cell batch, the plates were then covered with aluminium foil, shaken on the plate shaker at 180 rpm for 2 minutes, allowed to stand on the laboratory bench for 8 minutes and then measured using a luminometer (Victor X2, Perkin Elmer). The substrate detects the ATP content in the living cells, generating a luminescence signal the height of which is directly proportional to the vitality of the cells. […] From the measured data, the IC50 of the growth inhibition in comparison to day 0 was calculated using the DRC (dose response curve) analysis spreadsheets with a 4-parameter fit. […]

[5] = test system: MCF-7: human breast cancer cells; assay: CTG assay, cytotoxic effects of the anti-B7H3 ADCs, MCF-7; assay type: cell-based; details: MCF7, growth inhibition vs day 0, 72 h incubation, B7H3-positive cells
Experimental: as §2, §3, §4

[6] = test system: Caki-2: human renal carcinoma cells; assay: CTG assay, cytotoxic effects of the anti-B7H3 ADCs, Caki-2; assay type: cell-based; details: growth inhibition vs day 0, 72 h incubation, B7H3-positive cells
Excerpt: Caki-2: human renal carcinoma cells, ATCC-HTB-27, standard medium: DMEM/Ham's F12 (#FG4815, Biochrom AG)+10% FCS (#F2442, Sigma), B7H3-positive.

[7] = test system: Raji: human Burkitt's lymphoma cells; assay: CTG assay, cytotoxic effects of the anti-B7H3 ADCs, Raji; assay type: cell-based; details: growth inhibition vs day 0, 72 h incubation, B7H3-negative cells
Experimental: as §2, §3, §4

Row | Structure (SMILES) | IC50 [1] [nM] | IC50 [2] [nM] | Papp (B-A) [3] [×10⁻⁶ cm/s] | IC50 [4] [nM] | IC50 [5] [nM] | IC50 [6] [nM] | IC50 [7] [nM]
1 | CC(C)(C)[C@H](c1cc(-c2cc(F)ccc2F)cn1Cc1ccccc1)N(CC[C@H](N)C(=O)NC(CCC(=O)O)C(=O)O)C(=O)CO.O=C(O)C(F)(F)F (stereo in doubt) [Example M25, N-{(2S)-2-Amino-4-[{(1R)-1-[1-benzyl-4-(2,5-difluorophenyl)-1H-pyrrol-2-yl]-2,2-dimethylpropyl}(glycoloyl)amino]butanoyl}-L-glutamic acid-trifluoroacetic acid (1:1)] | 500 | 500 | 0.81 |  |  |  | 
2 | CC(C)(C)[C@H](c1cc(-c2cc(F)ccc2F)cn1Cc1ccccc1)N(CCCN)C(=O)CO [Example M09, N-(3-Aminopropyl)-N-{(1R)-1-[1-benzyl-4-(2,5-difluorophenyl)-1H-pyrrol-2-yl]-2,2-dimethylpropyl}-2-hydroxyacetamide] |  |  |  | 0.0165 | 0.015 | 0.0975 | 0.015
